Read-outs that look alike come from different tables or passages of the source.

Data set [1] in a line: Cytotoxicity by intracellular ATP levels. Type of data set: cell-based. To be noted: human, Huh5-2 cells, read-out: HCV Replicon 1b CC50. The method, then: (§1) The HCV RNA replication inhibitory effect of the novel compounds and their impact on cell viability was tested in the stable cell line Huh5-2 carrying an HCV subgenomic reporter replicon of genotype 1b (strain Con1). The viral replication level was measured in terms of the activity of the co-expressed firefly luciferase (F-Luc). Several concentrations of the tested compounds were prepared in a cell culture medium and were used to treat the cells for 72 h. The solvent DMSO was added as a control with a final concentration of 0.2% so as not to impact viral replication (data not shown). First, different compound concentrations of up to 100 μM were evaluated for their effect on cell viability; results are reported as the median cytotoxic concentration (CC50). Next, all compounds were screened for their anti-HCV activity at a concentration of 1 µM, and compounds showing ≥50% activity were further tested in several concentrations to calculate the median effective concentration (EC50) values (Table 1 and Table 2). The anti-HCV activity of the analogs 1–32 was estimated by quantifying luciferase activity resulting from viral replication. Cytotoxicity was determined by measuring the intracellular levels of ATP. The selectivity index (SI50) was calculated as the ratio of CC50 to EC50 and was calculated as an indication of the compounds’ safety. We used daclatasvir as a positive control.
(§2) Cells were treated with serial dilutions of the test compounds or the solvent DMSO for 72 h. Antiviral activity and cytotoxicity were determined by measuring virus-derived luciferase activity or intracellular ATP levels, respectively. The median effective concentration (EC50) of the compounds, reducing luciferase signal by 50%, and their median cytotoxic concentration (CC50), causing 50% cell death, were determined by nonlinear regression analysis using the Prism 6.0 software (GraphPad Software Inc.). Daclatasvir was kindly provided by Dr. Marc Windisch (Institut Pasteur Korea).
(§3) ATP was measured using the ViaLight HS BioAssay kit (Lonza) according to the manufacturer’s protocol in a GloMax 20/20 single-tube luminometer (Promega) for 1 s. Values were normalized to total protein amounts.
(Replicon systems follow genome replication, usually without infectious particles.)

In data set [2] the test system is HCV subgenomic reporter replicon of genotype 1b (strain Con1). As to the kind of experiment: Anti-HCV 1b activity, luciferase reporter replicon assay in Huh5-2 cells. Type of data set: cell-based, Hepatitis C virus. To be noted: for EC50: read-out: HCV Replicon 1b EC50; for HCV Replicon 1b SI50: SI50 = CC50/EC50; for fold more potent than six-membered congeners: 1, 9, 17, 21 vs 29, 30, 31, 32 respectively. The method, then: as §1
The stable replicon cell line Huh5-2 (genotype 1b; Con1) (kindly provided by R. Bartenschlager, Heidelberg University, Germany) has been described previously. The stable cell lines Huh7.5-3a and Huh7.5-4a have been constructed with the subgenomic reporter replicons of HCV 3a (S52) S52-SG(Feo)(AII) and HCV 4a (ED43) ED43-SG(Feo)(VYG) (kindly provided by C.M. Rice, The Rockefeller University, NY). Cells were cultured in high glucose (25 mM) Dulbecco’s modified minimal essential medium (Invitrogen), supplemented with 2 mM L-glutamine, 0.1 mM non-essential amino acids, 100 U/mL penicillin, 100 µg/mL streptomycin, and 10% (v/v) fetal calf serum (referred to as complete DMEM). Complete DMEM was supplemented with G418 at 500 μg/mL for Huh5-2, 750 μg/mL for Huh7.5-3a, and 350 μg/mL for Huh7.5-4a.
as §2
Firefly luciferase activity was measured using Luciferase Assay System (Promega), according to the manufacturer’s instructions. Measurements were performed with a GloMax 20/20 single tube luminometer (Promega) for 10 s. Values were normalized to total protein amounts as quantified by Bradford assay (Pierce).
(A reporter such as luciferase makes a cellular process visible.)

For a further data set, the system named is Huh5-2 cells. Description: Cytotoxicity by intracellular ATP levels. Particulars: 72 h, read-out: HCV Replicon 1b CC50. Type of data set: cell-based. On the procedure: as §1, §2, §3
The mark [3] stands for this setting: Hepatitis C virus, Huh-5-2, 72 h.
Setting [4] is: Hepatitis C virus, Huh-5-2, Huh5-2 cells, 72 h, luciferase activity.
The mark [5] stands for this setting: Huh5-2 cells, 72 h, luciferase activity.

The CC50 is the concentration giving 50% cytotoxicity. In general, EC50 refers to the concentration needed to bring the measured effect to its halfway point. `CCCCOC(=O)N[C@H](C(=O)N1CCC[C@H]1C(=O)Nc1ccc2c(c1)Cc1cc(NC(=O)[C@@H]3CCCN3C(=O)[C@@H](NC(=O)OCCCC)c3ccccc3)ccc1-2)c1ccccc1` [Compound 23, Dibutyl((1S,1’S)-((2S,2’S)-(((9H-fluorene-2,7-diyl)bis(azanediyl))bis(carbonyl))bis(pyrrolidine-2,1-diyl))bis(2-oxo-1-phenylethane-2,1-diyl))dicarbamate]: the CC50 at 72 h in data set [1] was above 100000 nM. In addition, the EC50 in data set [2] (setting [3]) was found to be 2.25 nM. Also, the “HCV Replicon 1b SI50” value in data set [2] was >44,444.

Take `O=C(N[C@H](C(=O)N1CCC[C@H]1C(=O)Nc1ccc2c(c1)Cc1cc(NC(=O)[C@@H]3CCCN3C(=O)[C@@H](NC(=O)OCc3ccccc3)c3ccccc3)ccc1-2)c1ccccc1)OCc1ccccc1` [Compound 24, Dibenzyl((1S,1’S)-((2S,2’S)-(((9H-fluorene-2,7-diyl)bis(azanediyl))bis(carbonyl))bis(pyrrolidine-2,1-diyl))bis(2-oxo-1-phenylethane-2,1-diyl))dicarbamate]: the CC50 at 72 h in data set [1] was above 100000 nM. The EC50 in data set [2] (setting [4]) is 1.12 nM. Also, the “HCV Replicon 1b SI50” value in data set [2] is reported as >89,606.

Turning to `COC(=O)N[C@@H](C(=O)N1CCC[C@H]1C(=O)Nc1ccc2c(c1)Cc1cc(NC(=O)[C@@H]3CCCN3C(=O)[C@H](NC(=O)OC)c3ccccc3)ccc1-2)c1ccccc1` [Compound 25, Dimethyl((1R,1’R)-((2S,2’S)-(((9H-fluorene-2,7-diyl)bis(azanediyl))bis(carbonyl))bis(pyrrolidine-2,1-diyl))bis(2-oxo-1-phenylethane-2,1-diyl))dicarbamate], in data set [1], the CC50 at 72 h came to 95400 nM. For the same compound, the “fold more active than S counterparts” value in data set [2] (25 vs 21, 26 vs 22, HCV 1b EC50 ratio) was 60 fold. Moreover, the “times less potent than compound 26” value in data set [2] (HCV 1b EC50 ratio) was “four times less potent”. Moreover, the EC50 in data set [2] (setting [3]) was 0.142 nM. For the same compound, in data set [2], the “HCV Replicon 1b SI50” value is 669,874.

Regarding `CCCCOC(=O)N[C@@H](C(=O)N1CCC[C@H]1C(=O)Nc1ccc2c(c1)Cc1cc(NC(=O)[C@@H]3CCCN3C(=O)[C@H](NC(=O)OCCCC)c3ccccc3)ccc1-2)c1ccccc1` [Compound 27, Dibutyl((1R,1’R)-((2S,2’S)-(((9H-fluorene-2,7-diyl)bis(azanediyl))bis(carbonyl))bis(pyrrolidine-2,1-diyl))bis(2-oxo-1-phenylethane-2,1-diyl))dicarbamate], the CC50 at 72 h in data set [1] was above 100000 nM. Also, in data set [2] (HCV 1b EC50 ratio), the “times less potent than compound 26” value is on record as 100 times. Moreover, the EC50 in data set [2] (setting [3]) is 4.03 nM. In addition, the “HCV Replicon 1b SI50” value in data set [2] is >24,795.

Regarding `O=C(N[C@@H](C(=O)N1CCC[C@H]1C(=O)Nc1ccc2c(c1)Cc1cc(NC(=O)[C@@H]3CCCN3C(=O)[C@H](NC(=O)OCc3ccccc3)c3ccccc3)ccc1-2)c1ccccc1)OCc1ccccc1` [Compound 28, Dibenzyl((1R,1’R)-((2S,2’S)-(((9H-fluorene-2,7-diyl)bis(azanediyl))bis(carbonyl)) Bis(pyrrolidine-2,1-diyl))bis(2-oxo-1-phenylethane-2,1-diyl))dicarbamate], the CC50 at 72 h in data set [1] was above 100000 nM. Also, the “times less potent than compound 26” value in data set [2] (HCV 1b EC50 ratio) is 2363 times. In addition, the EC50 in data set [2] (setting [4]) stood at 94.5 nM. In addition, the “HCV Replicon 1b SI50” value in data set [2] is on record as >1,058.

Regarding `COC(=O)N[C@H](C(=O)N1CCCC(C(=O)Nc2ccc3c(c2)Cc2cc(NC(=O)C4CCCN(C(=O)[C@@H](NC(=O)OC)C(C)C)C4)ccc2-3)C1)C(C)C` (some centres unmarked) [Compound 29], in data set [1], the cytotoxic concentration (CC50) at 72 h is above 100000 nM. The EC50 in data set [2] (setting [3]) is 342 nM. Also, the “HCV Replicon 1b SI50” value in data set [2] is above 292.

`COC(=O)N[C@@H](CC(C)C)C(=O)N1CCCC(C(=O)Nc2ccc3c(c2)Cc2cc(NC(=O)C4CCCN(C(=O)[C@H](CC(C)C)NC(=O)OC)C4)ccc2-3)C1` (some centres unmarked) [Compound 30]: the CC50 at 72 h in data set [1] is above 100000 nM. For the same compound, the EC50 in data set [2] (setting [3]) came to 289 nM. The “HCV Replicon 1b SI50” value in data set [2] is listed as above 346.

`CCC(C)[C@H](NC(=O)OC)C(=O)N1CCCC(C(=O)Nc2ccc3c(c2)Cc2cc(NC(=O)C4CCCN(C(=O)[C@@H](NC(=O)OC)C(C)CC)C4)ccc2-3)C1` (some centres unmarked) [Compound 31]: the CC50 at 72 h in data set [1] was determined as 98300 nM. Moreover, in data set [2] (setting [3]), the EC50 worked out at 296 nM. In data set [2], the “HCV Replicon 1b SI50” value came to 333.

Take `COC(=O)N[C@H](C(=O)N1CCCC(C(=O)Nc2ccc3c(c2)Cc2cc(NC(=O)C4CCCN(C(=O)[C@@H](NC(=O)OC)c5ccccc5)C4)ccc2-3)C1)c1ccccc1` (some centres unmarked) [Compound 32]: the CC50 at 72 h in data set [1] was above 100000 nM. The EC50 in data set [2] (setting [3]) amounted to 304 nM. Besides, the “HCV Replicon 1b SI50” value in data set [2] is above 328.

With `CC(C)(C)OC(=O)N1CCCC(C(=O)Nc2ccc3c(c2)Cc2cc(NC(=O)C4CCCN(C(=O)OC(C)(C)C)C4)ccc2-3)C1` (centres unmarked) [IV, Di-tert-butyl3,3’-(((9H-fluorene-2,7diyl)bis(azanediyl))bis(carbonyl))bis(piperidine-1-carboxylate)], the CC50 at 72 h in data set [1] was determined as 45000 nM. In data set [2] (setting [4]), the EC50 was above 1000 nM.

Regarding “Dibenzyl((2S,2’S)-((2S,2’S)-(((9H-fluorene-2,7-diyl)bis(azanediyl))bis(carbonyl))bis(pyrrolidine-2,1-diyl))bis(3-methyl-1-oxopentane-1,2-diyl))dicarbamate [Compound 12]”, the CC50 in the data set on Huh5-2 cells amounted to 46400 nM. In addition, in data set [2] (setting [5]), the EC50 was above 1000 nM.

Turning to “Dibenzyl((2S,2’S)-((2S,2’S)-(((9H-fluorene-2,7-diyl)bis(azanediyl))bis(carbonyl))bis(pyrrolidine-2,1-diyl))bis(4-methyl-1-oxopentane-1,2-diyl))dicarbamate [Compound 20]”, in the data set with Huh5-2 cells, the CC50 was determined as 98700 nM. Also, the EC50 in data set [2] (setting [5]) was above 1000 nM.

Turning to “Diethyl((2S,2’S)-((2S,2’S)-(((9H-fluorene-2,7 diyl)bis(azanediyl))bis(carbonyl)) bis(pyrrolidine-2,1-diyl))bis(4-methyl-1-oxopentane-1,2-diyl))dicarbamate [Compound 18]”, in the data set on Huh5-2 cells, the CC50 is above 100000 nM. For the same compound, in data set [2] (setting [5]), the EC50 came out at 151 nM. Further, the “HCV Replicon 1b SI50” value in data set [2] was above 664.

Take “Diethyl((2S,2’S)-((2S,2’S)-(((9H-fluorene-2,7-diyl)bis(azanediyl))bis(carbonyl))bis(pyrrolidine-2,1-diyl))bis(3-methyl-1-oxopentane-1,2-diyl))dicarbamate [Compound 10]”: the CC50 in the data set on Huh5-2 cells came out at 85500 nM. Further, the “fold more potent than congener with D-leucine moiety” value in data set [2] (HCV 1b EC50 ratio) is recorded as 18 fold. Also, the EC50 in data set [2] (setting [5]) is 0.137 nM. In addition, the “HCV Replicon 1b SI50” value in data set [2] is recorded as 622,344.

“Dimethyl((2S,2’S)-((2S,2’S)-(((9H-fluorene-2,7-diyl)bis(azanediyl))bis (carbonyl)) bis(pyrrolidine-2,1-diyl))bis(4-methyl-1-oxopentane-1,2-diyl))dicarbamate [Compound 17]”: the CC50 in the data set with Huh5-2 cells is above 100000 nM. Also, the “fold more potent than six-membered congeners” value in data set [2] (HCV 1b EC50 ratio) is 28 fold. In data set [2] (setting [5]), the EC50 amounted to 10.7 nM. Further, in data set [2], the “HCV Replicon 1b SI50” value is reported as above 9381.

Consider “Dimethyl((2S,2’S)-((2S,2’S)-(((9H-fluorene-2,7-diyl)bis(azanediyl))bis(carbonyl))bis(pyrrolidine-2,1-diyl))bis(3-methyl-1-oxopentane-1,2-diyl))dicarbamate [Compound 9]”, for which the CC50 in the data set with Huh5-2 cells was above 100000 nM. Also, in data set [2] (HCV 1b EC50 ratio), the “fold more potent than six-membered congeners” value is recorded as 11 fold and the “times less active than R congener compound 13” value is recorded as “around 340 times”. Also, the EC50 in data set [2] (setting [5]) was found to be 27.5 nM. The “HCV Replicon 1b SI50” value in data set [2] is given as above 3636.

Source of the values: paper PMC8064491, “Design and Synthesis of Novel Symmetric Fluorene-2,7-Diamine Derivatives as Potent Hepatitis C Virus Inhibitors” (Pharmaceuticals, 2021).
